Measurements as given in the supplement of paper PMC11061612.

Assays:
IMR-5 (Neuroblastoma) = assay: combination Emax (second highest fraction inhibited in the dose matrix, 72 h); higher = more inhibition; extreme values may be limits of the assay
In short: (§1)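 Cell lines grown in DMEM/F12 or RPMI with 10% FBS were plated in 1536-well plates and held 24 hours at 37°C, 5% CO2 before 72 hours of exposure to two-drug dose matrices, with DMSO typically at 0.2%. CellTiter-Glo 2.0 luminescence gave viability, which was converted to inhibition. Vehicle wells were set to 0 and blank wells to 1. Combination Emax is the second-highest inhibition in the matrix, and Bliss excess is the observed combination effect minus the expected EA + EB − EA·EB, where EA and EB are the single-agent effects.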

[1] = tested on: KP-2 (Pancreatic Carcinoma); assay: as above
In short: as §1

[2] = tested on: EBC-1 (Squamous Cell Lung Carcinoma); assay: as above
In short: as §1

[3] = tested on: KYSE-50 (Esophageal Squamous Cell Carcinoma); assay: as above
In short: as §1

[4] = tested on: HuP-T3 (Pancreatic Carcinoma); assay: as above
In short: as §1

GI-1 (Glioblastoma) [5] = assay: as above
In short: as §1

[6] = tested on: KLE (Endometrial Carcinoma); assay: as above
In short: as §1

[7] = tested on: PFSK-1 (Other Solid Carcinomas); assay: as above
In short: as §1

[8] = tested on: VMRC-LCD (Lung Adenocarcinoma); assay: as above
In short: as §1

[9] = tested on: PF-382 (T-Lymphoblastic Leukemia); assay: as above
In short: as §1

[10] = tested on: OCUM-1 (Gastric Carcinoma); assay: as above
In short: as §1

EW-13 (Ewing's Sarcoma) [11] = assay: as above
In short: as §1

[12] = tested on: H-EMC-SS (Chondrosarcoma); assay: as above
In short: as §1

[13] = tested on: ASH-3 (Thyroid Gland Carcinoma); assay: Bliss excess, mean over the matrix (fraction); higher = more synergy
In short: as §1

NB7 (Neuroblastoma) = assay: as above
In short: as §1

[14] = tested on: NCI-N87 (Gastric Carcinoma); assay: as above
In short: as §1

GI-1 (Glioblastoma) [15] = assay: as above
In short: as §1

[16] = tested on: LC4-1 (B-Lymphoblastic Leukemia); assay: as above
In short: as §1

[17] = tested on: PFSK-1 (Other Solid Carcinomas); assay: as above
In short: as §1

EW-13 (Ewing's Sarcoma) [18] = assay: as above
In short: as §1
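Throughout, for Bliss excess, mean over the matrix: after 72 h of two-drug dosing.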

Row | SMILES | combination Emax (IMR-5 (Neuroblastoma)) | combination Emax [1] | combination Emax [2] | combination Emax [3] | combination Emax [4] | combination Emax (GI-1 (Glioblastoma) [5]) | combination Emax [6] | combination Emax [7] | combination Emax [8] | combination Emax [9] | combination Emax [10] | combination Emax (EW-13 (Ewing's Sarcoma) [11]) | combination Emax [12] | Bliss excess [13] | Bliss excess (NB7 (Neuroblastoma)) | Bliss excess [14] | Bliss excess (GI-1 (Glioblastoma) [15]) | Bliss excess [16] | Bliss excess [17] | Bliss excess (EW-13 (Ewing's Sarcoma) [18])
1 | Cn1cnc2c(F)c(Nc3ccc(Br)cc3Cl)c(C(=O)NOCCO)cc21 [Selumetinib] + C=CCn1c(=O)c2cnc(Nc3ccc(N4CCN(C)CC4)cc3)nc2n1-c1cccc(C(C)(C)O)n1 [AZD1775] (first compound max 10 µM, partner max 1 µM) | 0.894 | 0.54 | 0.923 | 0.605 | 0.629 | 0.74 | 0.539 | 0.659 | 0.702 | 0.974 | 0.944 | 0.0949 | 0.23 | -0.0192 | -0.0305 | 0.023 | -0.0387 | 0.0314 | -0.0549 | -0.0742
2 | NC1(C(=O)N[C@@H](CCO)c2ccc(Cl)cc2)CCN(c2ncnc3[nH]ccc23)CC1 [Capivasertib] + COc1nnc2ccc(N3CCC(c4ccc(OCCN5CCN(C)C(=O)[C@H]5C)cc4)CC3)nn12 [AZD5153] (first compound max 10 µM, 7x7, partner max 1 µM) | 0.857 | 0.442 | 0.829 | 0.525 | 0.522 | 0.915 | 0.639 | 0.581 | 0.454 | 1 | 0.596 | 0.636 | 0.351 | 0.0231 | -0.0483 | -0.0314 | 0.0578 | 0.002 | -0.0158 | 0.0153
3 | NC1(C(=O)N[C@@H](CCO)c2ccc(Cl)cc2)CCN(c2ncnc3[nH]ccc23)CC1 [Capivasertib] + C[C@@H]1COCCN1C2=NC(=NC(=C2)C3(CC3)[S@](=N)(=O)C)C4=C5C=CNC5=NC=C4 [AZD6738] (first compound max 10 µM, 7x7, partner max 10 µM) | 0.99 | 0.17 | 0.601 | 0.676 | 0.645 | 0.944 | 0.59 | 0.699 | 0.566 | 0.974 | 0.774 | 0.67 | 0.526 | -0.0468 | -0.0518 | -0.0567 | -0.0606 | 0.0099 | -0.0956 | 0.0091
4 | NC1(C(=O)N[C@@H](CCO)c2ccc(Cl)cc2)CCN(c2ncnc3[nH]ccc23)CC1 [Capivasertib] + CCN(CCO)CCCOc1ccc2c(Nc3cc(CC(=O)Nc4cccc(F)c4)[nH]n3)ncnc2c1 [AZD2811] (first compound max 10 µM, 7x7, partner max 1 µM) | 1 | 0.132 | 0.395 | 0.388 | 0.249 | 0.754 | 0.332 | 0.532 | 0.59 | 0.916 | 0.683 | 0.388 | 0.488 | -0.0147 | 0.0377 | -0.0529 | 0.022 | -0.0221 | -0.027 | 0.007
5 | Cc1c2c(nn1C)CSCc1cc(n(C)n1)CSc1cc(c3ccccc3c1)OCCCc1c(C(=O)O)n(C)c3c-2c(Cl)ccc13 [AZD5991] + Cn1cnc2c(F)c(Nc3ccc(Br)cc3Cl)c(C(=O)NOCCO)cc21 [Selumetinib] (first compound max 1 µM, 7x7, partner max 3 µM) | 0.983 | 0.749 | 0.827 | 0.292 | 0.462 | 0.726 | 0.287 | 1 | 0.174 | 0.207 | 0.895 | 0.338 | 0.563 | 0.0175 | -0.0259 | 0.0633 | -0.0491 | 0.0467 | 0.0395 | 0.0215
6 | CC1(C)CCC(CN2CCN(c3ccc(C(=O)NS(=O)(=O)c4ccc(NCC5CCOCC5)c([N+](=O)[O-])c4)c(Oc4cnc5[nH]ccc5c4)c3)CC2)=C(c2ccc(Cl)cc2)C1 [Venetoclax] + C[C@@H](Nc1cc(F)cc(F)c1)c1cc(C(=O)N(C)C)cc2c(=O)cc(N3CCOCC3)oc12 [AZD8186] (first compound max 1 µM, 7x7, partner max 3 µM) | 0.276 | 0.0788 | 0.209 | 0.18 | 0.119 | 0.28 | 0.41 | 0.194 | 0.093 | 0.202 | 0.137 | 0.322 | 0.323 | -0.0223 | -0.0235 | -0.111 | -0.0091 | 0.0967 | 0.0015 | 0.0349
7 | Cc1c2c(nn1C)CSCc1cc(n(C)n1)CSc1cc(c3ccccc3c1)OCCCc1c(C(=O)O)n(C)c3c-2c(Cl)ccc13 [AZD5991] + C[C@@H](Nc1cc(F)cc(F)c1)c1cc(C(=O)N(C)C)cc2c(=O)cc(N3CCOCC3)oc12 [AZD8186] (first compound max 1 µM, 7x7, partner max 3 µM) | 0.955 | 0.254 | 0.307 | 0.317 | 0.288 | 0.883 | 0.493 | 0.998 | 0.196 | 0.27 | 0.137 | 0.454 | 0.476 | 0.0027 | 0.0187 | -0.0181 | 0.0556 | -0.057 | 0.0429 | -0.0535
